pIC50: −log10 of the molar value.
Legend:
[1] = biological target: T1, human CD73 (Homo sapiens, UniProt P21589); assay: Inhibitor activity against CD73 in cell based assay (CD73 expressing CHO-K1 cells); details: CHO-K1 cells expressing human CD73, 150 μM AMP, 4 hours of incubation; read-out: CHO-K1 CELL_VARIANT: CD73 IC50
T1 construct: expressed in transfected cells
T1 sequence (P21589 27-549): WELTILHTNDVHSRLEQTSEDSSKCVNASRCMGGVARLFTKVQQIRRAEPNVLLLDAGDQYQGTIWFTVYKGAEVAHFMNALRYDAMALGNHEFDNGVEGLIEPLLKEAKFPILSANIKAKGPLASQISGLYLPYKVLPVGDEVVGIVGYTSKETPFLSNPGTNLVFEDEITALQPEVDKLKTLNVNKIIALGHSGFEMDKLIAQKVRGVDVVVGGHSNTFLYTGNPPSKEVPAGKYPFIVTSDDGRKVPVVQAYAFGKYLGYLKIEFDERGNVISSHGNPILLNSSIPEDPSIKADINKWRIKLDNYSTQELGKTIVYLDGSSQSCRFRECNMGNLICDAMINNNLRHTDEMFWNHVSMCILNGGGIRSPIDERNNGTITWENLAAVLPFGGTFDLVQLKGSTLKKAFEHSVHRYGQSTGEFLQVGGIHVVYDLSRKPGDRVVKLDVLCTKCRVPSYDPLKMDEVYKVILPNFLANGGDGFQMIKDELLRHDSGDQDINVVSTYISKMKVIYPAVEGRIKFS
Method: Determine Inhibitor Activity Against CD73 in Cell Based Assay
CD73 expressing CHO-K1 cell clones were generated upon stable transfection of a plasmid expressing human CD73 under the control of CMV promoter. Cells were selected in Ham's F-12K (Kaighn's) media supplemented with 10% fetal bovine serum and 1 mg/ml G418 at 37° C. in a humidified incubator supplied with 5% CO2. The assays were performed as follows. Cells were seeded in a 96 well plate in 50 μL of culture media at a density of 1×10^4 per well. Compound at a maximal concentration of 5 mM was serially diluted 1:3 in DMSO for a total of 8 point titration. A 2 μL aliquot of each dilution point was added to […] culture media and 25 µL was added to each well, providing 10 μM compound at the maximum concentration point. AMP was diluted in culture media and 25 μL was added to each well with a final concentration of 150 μM. 4 wells containing 0.2% DMSO treated cells and AMP served as high controls and 4 wells containing media only with 0.2% DMSO and AMP served as low controls. After 4 hours of incubation, 20 μL of the supernatant was transferred to a 384 well plate. AMP level in supernatant was measured indirectly by adding 5 μL of CellTiter-Glo® 2.0 reagent and 5 μL of ATP with a final concentration of 1 μM. Following incubation of plate at room temperature for 30 minutes, luminescent signal was read on a Tecan plate reader. The percentage inhibition at individual concentrations relative to high and low controls was calculated. The data were analyzed by using nonlinear regression to generate ICso values.

[2] = biological target: T2, Human CD73 (amino acid residues 27-549) (Homo sapiens, UniProt P21589); assay: CD73 enzymatic assay (luciferase-based indirect assay, CellTiter-Glo); assay type: biochemical; details: 0.4 nM CD73, 150 μM AMP, 1 hour at room temperature
T2 construct: Human CD73 (amino acid residues 27-549); His tag (N); made in house; host or cells: E. coli
T2 sequence (P21589 27-549): T1 sequence (P21589 27-549)
Method: CD73 enzymatic activity was measured in a luciferase-based indirect assay using CellTiter-Glo® system from Promega. The luciferase reaction in the presence of ATP is inhibited by AMP, a primary substrate of CD73. Addition of CD73 enzyme to the reaction converts AMP to adenosine, and release the inhibition, producing a luminescent signal. Inhibition of CD73 leads to the decrease of this luminescent signal.
Human CD73 (amino acid residues 27-549) with N-Terminal His tag was purified in E. coli. All the assay components were prepared in 50 mM HEPEs buffer (pH 7.4) with 0.01% Tween-20. The CD73 enzymatic assay was performed using 0.4 nM CD73 and 150 μM AMP. 9.5 μL of CD73 protein and 9.5 μL of AMP were added to the wells of a 384 well plate containing lpL of various concentrations of test compound or DMSO vehicle and incubated for 1 hour at room temperature. 16 wells containing CD73, AMP and 5% DMSO served as high control. 16 wells containing AMP and 5% DMSO served as low control. Enzymatic reaction was stopped and AMP level was measured indirectly by adding 5 μL of CellTiter-Glo® 2.0 reagent and 5 μL of ATP with a final concentration of 1 μM. Following incubation of the plate at room temperature for 30 minutes, luminescent signal was read on a Tecan plate reader. The percentage inhibition at individual concentrations relative to high and low controls was calculated. The data were analyzed by using nonlinear regression to generate IC50 values.

Structure (SMILES) | pIC50 [1] | pIC50 [2]
Cc1nn(CC(C)(C)O)c(C)c1-c1cc(O[C@@H]2CCN(c3cnn(CCO)c(=O)c3Cl)C2)ncn1 [P-0014, (R)-4-chloro-5-(3-((6-(1-(2-hydroxy-2-methylpropyl)-3,5-dimethyl-1H-pyrazol-4-yl)pyrimidin-4-yl)oxy)pyrrolidin-1-yl)-2-(2-hydroxyethyl)pyridazin-3(2H)-one] | 5.00 to 9.00 | 5.00 to 9.00
CCn1nc(C)c(-c2ccnc(O[C@@H]3CCN(c4cn[nH]c(=O)c4Cl)C3)c2)c1C [P-0077, (R)-4-chloro-5-(3-((4-(1-ethyl-3,5-dimethyl-1H-pyrazol-4-yl)pyridin-2-yl)oxy)pyrrolidin-1-yl)pyridazin-3(2H)-one] | 5.00 to 9.00 | 5.00 to 9.00
NC1CC=C(c2ccnc(O[C@@H]3CCN(c4cn[nH]c(=O)c4Cl)C3)c2)CC1 (stereo partly drawn) [P-0067, 5-((3R)-3-((4-(4-aminocyclohex-1-en-1-yl)pyridin-2-yl)oxy)pyrrolidin-1-yl)-4-chloropyridazin-3(2H)-one] | 5.00 to 9.00 | 5.00 to 9.00
Cc1nn(C)c(C)c1-c1ccnc(O[C@@H]2CCN(c3cnn(CCCO)c(=O)c3C#N)C2)c1 [P-0097, (R)-2-(3-hydroxypropyl)-3-oxo-5-(3-((4-(1,3,5-trimethyl-1H-pyrazol-4-yl)pyridin-2-yl)oxy)pyrrolidin-1-yl)-2,3-dihydropyridazine-4-carbonitrile] | 5.00 to 9.00 | 5.00 to 9.00
Cc1nn(C(CO)CI)c(C)c1-c1ccnc(O[C@@H]2CCN(c3cn[nH]c(=O)c3Cl)C2)c1 (stereo partly drawn) [P-0088, 4-chloro-5-((3R)-3-((4-(1-(1-hydroxy-3-iodopropan-2-yl)-3,5-dimethyl-1H-pyrazol-4-yl)pyridin-2-yl)oxy)pyrrolidin-1-yl)pyridazin-3(2H)-one] | 5.00 to 9.00 | 5.00 to 9.00
O=c1[nH]ncc(N2CC[C@@H](Oc3cc(C4=CCNCC4)ccn3)C2)c1Cl [P-0075, (R)-4-chloro-5-(3-((1′,2′,3′,6′-tetrahydro-[4,4′-bipyridin]-2-yl)oxy)pyrrolidin-1-yl)pyridazin-3(2H)-one] | 5.00 to 9.00 | 5.00 to 9.00
O=c1c(Cl)c(N2CC[C@@H](Oc3ncccc3NC3CCC(F)(F)CC3)C2)cnn1CCO [P-0102, (R)-4-chloro-5-(3-((3-((4,4-difluorocyclohexyl)amino)pyridin-2-yl)oxy)pyrrolidin-1-yl)-2-(2-hydroxyethyl)pyridazin-3(2H)-one] | 5.00 to 9.00 | 5.00 to 9.00
CN1CCC(c2ccnc(O[C@@H]3CCN(c4cn[nH]c(=O)c4Cl)C3)c2)CC1 [P-0008, (R)-4-chloro-5-(3-((4-(1-methylpiperidin-4-yl)pyridin-2-yl)oxy)pyrrolidin-1-yl)pyridazin-3(2H)-one] | 5.00 to 9.00 | 5.00 to 9.00
Cc1nn(CC(C)(C)O)c(C)c1-c1ccnc(O[C@@H]2CCN(c3cnn(CCO)c(=O)c3Cl)C2)c1 [P-0017, (R)-4-chloro-5-(3-((4-(1-(2-hydroxy-2-methylpropyl)-3,5-dimethyl-1H-pyrazol-4-yl)pyridin-2-yl)oxy)pyrrolidin-1-yl)-2-(2-hydroxyethyl)pyridazin-3(2H)-one] | 5.00 to 9.00 | 5.00 to 9.00

Now from value to compound:

pIC50 [1] | pIC50 [2] | Structure (SMILES)
5.00 to 9.00 | 5.00 to 9.00 | CCNS(=O)(=O)c1ccc(-c2ccnc(O[C@@H]3CCN(c4cn[nH]c(=O)c4Cl)C3)c2)c(Cl)c1 [P-0202, (R)-3-chloro-4-(2-((1-(5-chloro-6-oxo-1,6-dihydropyridazin-4-yl)pyrrolidin-3-yl)oxy)pyridin-4-yl)-N-ethylbenzenesulfonamide]
5.00 to 9.00 | 5.00 to 9.00 | Cc1nnn(C)c1-c1cc(F)nc(O[C@@H]2CCN(c3cn[nH]c(=O)c3Cl)C2)c1 [P-0172, (R)-4-chloro-5-(3-((4-(1,4-dimethyl-1H-1,2,3-triazol-5-yl)-6-fluoropyridin-2-yl)oxy)pyrrolidin-1-yl)pyridazin-3(2H)-one]
5.00 to 9.00 | 5.00 to 9.00 | Cc1n[nH]c(C)c1-c1cc(F)nc(O[C@@H]2CCN(c3cn[nH]c(=O)c3Cl)C2)c1 [P-0193, (R)-4-chloro-5-(3-((4-(3,5-dimethyl-1H-pyrazol-4-yl)-6-fluoropyridin-2-yl)oxy)pyrrolidin-1-yl)pyridazin-3(2H)-one]
5.00 to 9.00 | 5.00 to 9.00 | Cc1noc(C)c1-c1cc(O[C@@H]2CCN(c3cnn(CCN)c(=O)c3Cl)C2)ncn1 [P-0141, (R)-2-(2-aminoethyl)-4-chloro-5-(3-((6-(3,5-dimethylisoxazol-4-yl)pyrimidin-4-yl)oxy)pyrrolidin-1-yl)pyridazin-3(2H)-one]
5.00 to 9.00 | 5.00 to 9.00 | Cc1nn(CCC(F)(F)F)c(C)c1-c1cc(F)nc(O[C@@H]2CCN(c3cn[nH]c(=O)c3Cl)C2)c1 [P-0166, (R)-4-chloro-5-(3-((4-(3,5-dimethyl-1-(3,3,3-trifluoropropyl)-1H-pyrazol-4-yl)-6-fluoropyridin-2-yl)oxy)pyrrolidin-1-yl)pyridazin-3(2H)-one]
5.00 to 9.00 | 5.00 to 9.00 | O=c1[nH]ncc(N2CC[C@@H](Oc3cc(-c4ccc(C(F)(F)F)nc4)ccn3)C2)c1Cl [P-0231, (R)-4-chloro-5-(3-((6-(trifluoromethyl)-[3,4′-bipyridin]-2′-yl)oxy)pyrrolidin-1-yl)pyridazin-3(2H)-one]
5.00 to 9.00 | 5.00 to 9.00 | Cc1nn(C)c(C)c1-c1cc(O[C@@H]2CCN(c3cn[nH]c(=O)c3Cl)C2)ncc1F [P-0171, (R)-4-chloro-5-(3-((5-fluoro-4-(1,3,5-trimethyl-1H-pyrazol-4-yl)pyridin-2-yl)oxy)pyrrolidin-1-yl)pyridazin-3(2H)-one]
5.00 to 9.00 | 5.00 to 9.00 | Cc1nn(CC2(C)COC2)c(C)c1-c1ccnc(O[C@@H]2CCN(c3cnn(CCO)c(=O)c3Cl)C2)c1 [P-0112, (R)-4-chloro-5-(3-((4-(3,5-dimethyl-1-((3-methyloxetan-3-yl)methyl)-1H-pyrazol-4-yl)pyridin-2-yl)oxy)pyrrolidin-1-yl)-2-(2-hydroxyethyl)pyridazin-3(2H)-one]
5.00 to 9.00 | 5.00 to 9.00 | Cc1noc(C)c1-c1cc(O[C@@H]2CCN(c3cn[nH]c(=O)c3Cl)C2)ccn1 [P-0138, (R)-4-chloro-5-(3-((2-(3,5-dimethylisoxazol-4-yl)pyridin-4-yl)oxy)pyrrolidin-1-yl)pyridazin-3(2H)-one]
5.00 to 9.00 | 5.00 to 9.00 | Cc1cnn(C)c1-c1cc(F)nc(O[C@@H]2CCN(c3cn[nH]c(=O)c3Cl)C2)c1 [P-0175, (R)-4-chloro-5-(3-((4-(1,4-dimethyl-1H-pyrazol-5-yl)-6-fluoropyridin-2-yl)oxy)pyrrolidin-1-yl)pyridazin-3(2H)-one]
5.00 to 9.00 | 5.00 to 9.00 | Cc1cc(S(=O)(=O)NC2CC2)ccc1-c1cc(F)nc(O[C@@H]2CCN(c3cn[nH]c(=O)c3Cl)C2)c1 [P-0217, (R)-4-(2-((1-(5-chloro-6-oxo-1,6-dihydropyridazin-4-yl)pyrrolidin-3-yl)oxy)-6-fluoropyridin-4-yl)-N-cyclopropyl-3-methylbenzenesulfonamide]

From patent US12202818B2, “Compounds and methods for CD73 modulation and indications therefor” (Opna Bio SA, priority 2020, dated 2025)
